Measurements as given in patent US20230233690A1, “ANDROGEN RECEPTOR PROTEIN DEGRADERS” (THE REGENTS OF THE UNIVERSITY OF MICHIGAN, priority 2020, published 2023).

Biological target: T1, AR protein (Homo sapiens, UniProt P10275, T878A)
T1 construct: endogenous in cells; host or cells: LNCaP
T1 sequence (P10275 1-920 T878A): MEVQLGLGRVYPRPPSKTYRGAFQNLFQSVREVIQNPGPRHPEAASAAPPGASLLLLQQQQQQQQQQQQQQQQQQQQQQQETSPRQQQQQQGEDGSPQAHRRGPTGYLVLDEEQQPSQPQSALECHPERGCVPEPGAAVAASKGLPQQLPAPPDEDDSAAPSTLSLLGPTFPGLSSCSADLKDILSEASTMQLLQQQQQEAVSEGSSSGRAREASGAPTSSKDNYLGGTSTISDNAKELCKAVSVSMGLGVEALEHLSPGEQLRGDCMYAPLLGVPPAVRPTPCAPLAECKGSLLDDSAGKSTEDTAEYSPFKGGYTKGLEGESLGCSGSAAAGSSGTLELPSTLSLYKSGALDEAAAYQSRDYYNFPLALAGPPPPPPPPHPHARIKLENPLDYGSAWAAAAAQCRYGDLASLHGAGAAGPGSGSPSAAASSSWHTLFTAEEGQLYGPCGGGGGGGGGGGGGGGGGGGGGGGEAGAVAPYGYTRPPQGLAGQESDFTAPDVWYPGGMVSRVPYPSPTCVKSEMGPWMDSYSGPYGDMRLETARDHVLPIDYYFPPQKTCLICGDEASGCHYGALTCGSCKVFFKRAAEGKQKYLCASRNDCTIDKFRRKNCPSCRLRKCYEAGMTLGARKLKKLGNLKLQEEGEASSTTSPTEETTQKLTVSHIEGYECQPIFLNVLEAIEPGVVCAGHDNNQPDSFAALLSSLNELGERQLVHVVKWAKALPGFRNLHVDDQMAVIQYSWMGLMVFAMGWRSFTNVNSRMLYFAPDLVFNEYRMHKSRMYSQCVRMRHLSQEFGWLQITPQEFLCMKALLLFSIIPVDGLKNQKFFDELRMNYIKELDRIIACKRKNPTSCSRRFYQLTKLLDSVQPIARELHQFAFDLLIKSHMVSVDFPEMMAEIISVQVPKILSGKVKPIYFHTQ
Experiment: Western blotting of AR protein degradation in LNCaP cells
Assay type: cell-based
Conditions: 24 hr treatment
Procedure: The appropriate cell line, e.g., prostate cancer LNCaP, Vcap, or MDA-MB-453 cell line, was treated with Compounds of the Disclosure. The treated cells were lysed with RIPA buffer. The AR level in the cell lysates was examined by western blotting and a specific AR antibody (ab194196, Abcam, Cambridge, Mass. 02139) with concentration of 1:20,000. GAPDH was used as a loading control.
Bands were quantified with ImageJ software. The relative numbers of each band obtained from normalization with its corresponding GAPDH level were compared with Prism 8 software. The DC50 values were produced from Prism 8, and the DC90 values were calculated with an equation=Bottom+(Top−Bottom)/(1+10^((Log EC50−X)*HillSlope) based on DC50 and Hillslope values.
The amount of AR protein degradation in LNCaP, VCap, and MDA-MB-453 cells caused representative Compounds of the Disclosure at the concentrations indicated is presented in Table 4 and Table 5.

In the case of `CC1(C)[C@H](NC(=O)c2ccc(N3CCN(CCCCCOc4cccc5c4CN(C4CCC(=O)NC4=O)C5=O)CC3)nc2)C(C)(C)[C@H]1Oc1ccc(C#N)c(Cl)c1` (some centres unmarked) [compound 50], the “AR protein degradation LNCAP 10 nM” value (10 nM) is reported as “A (>90% degradation (24 hr treatment))” and the “AR protein degradation LNCAP 100 nM” value (100 nM) is reported as “A (>90% degradation (24 hr treatment))”.
